Measurements reported in ChEMBL document CHEMBL1208724, “A new group of oxime carbamates as reversible inhibitors of fatty acid amide hydrolase” (Bioorg Med Chem Lett, 2010).
Each block holds one compound with its values, some of them ahead of it.

Molecular target: T1, Fatty-acid amide hydrolase 1 (Mus musculus, UniProt O08914)
T1 sequence (O08914 whole entry): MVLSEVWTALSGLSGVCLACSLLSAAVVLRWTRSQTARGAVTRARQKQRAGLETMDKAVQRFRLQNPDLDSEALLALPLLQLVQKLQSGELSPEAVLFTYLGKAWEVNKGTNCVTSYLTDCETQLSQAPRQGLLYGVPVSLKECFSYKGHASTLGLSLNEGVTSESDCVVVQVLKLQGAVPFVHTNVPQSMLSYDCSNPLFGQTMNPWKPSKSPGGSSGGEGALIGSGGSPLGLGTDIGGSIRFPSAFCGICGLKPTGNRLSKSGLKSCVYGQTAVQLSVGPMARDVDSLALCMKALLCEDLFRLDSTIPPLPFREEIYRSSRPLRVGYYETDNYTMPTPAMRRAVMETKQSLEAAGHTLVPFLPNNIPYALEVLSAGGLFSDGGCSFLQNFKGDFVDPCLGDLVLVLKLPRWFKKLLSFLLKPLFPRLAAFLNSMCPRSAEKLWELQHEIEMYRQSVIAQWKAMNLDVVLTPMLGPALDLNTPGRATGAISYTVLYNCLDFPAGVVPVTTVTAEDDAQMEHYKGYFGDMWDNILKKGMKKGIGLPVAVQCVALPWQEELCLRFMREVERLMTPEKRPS
Test: Inhibition of mouse brain FAAH assessed as conversion of [3H-ethanolamine]AEA to [3H]ethanolamine by scintillation counting

SMILES: C/C(=N\OC(=O)Nc1ccc(F)cc1)c1cccc(-c2ccccc2)c1
IC50: 17 nM

SMILES: C/C(=N\OC(=O)Nc1cccc2ccccc12)c1ccc(-c2ccccc2)cc1
IC50: 401 nM

SMILES: C/C(=N\OC(=O)N1CCCCC1)c1cccc(-c2cccs2)c1
IC50: 112 nM

The next lines start with the values.

IC50: 760 nM
SMILES: C/C(=N\OC(=O)Nc1ccccc1)c1ccc(-c2ccccc2)cc1

IC50: 69 nM
SMILES: C/C(=N\OC(=O)Nc1ccccc1)c1cccc(-c2ccccc2)c1
